Test results from US9174974B2, “Macrocyclic factor VIIa inhibitors” (BRISTOL-MYERS SQUIBB COMPANY, priority 2012, dated 2015).

What was measured:
[1] = target: tissue kallikrein (HK1) (Homo sapiens (Human), UniProt P06870); assay: Tissue kallikrein-1 (HK1) Ki, fluorogenic substrate assay; format: biochemical; conditions: 37° C.
[2] = target: human FVIIa (Homo sapiens (Human), UniProt P08709); assay: FVIIa Ki (37° C.), FVIIa-Xase assay; format: biochemical; conditions: for Ki: read-out: FVIIa Ki, nM 37° C.; for Ki(HK1)/Ki(FVIIa): selectivity ratio, tissue kallikrein (HK1) vs FVIIa
Sequence of human FVIIa (P08709 61-212): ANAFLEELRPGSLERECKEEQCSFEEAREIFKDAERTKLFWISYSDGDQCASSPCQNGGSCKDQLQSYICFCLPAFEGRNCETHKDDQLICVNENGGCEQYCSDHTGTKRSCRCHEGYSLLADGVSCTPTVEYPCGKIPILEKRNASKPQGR
Sequence of human FVIIa (P08709 213-466): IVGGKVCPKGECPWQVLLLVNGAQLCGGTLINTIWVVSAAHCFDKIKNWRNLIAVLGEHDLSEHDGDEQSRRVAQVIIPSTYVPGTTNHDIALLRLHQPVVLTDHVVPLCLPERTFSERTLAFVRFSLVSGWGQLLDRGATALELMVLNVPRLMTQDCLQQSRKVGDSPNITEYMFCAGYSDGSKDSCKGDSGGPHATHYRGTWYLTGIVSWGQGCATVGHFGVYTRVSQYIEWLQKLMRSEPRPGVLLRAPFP
Sequence of human FVIIa (P13726 33-295 partner): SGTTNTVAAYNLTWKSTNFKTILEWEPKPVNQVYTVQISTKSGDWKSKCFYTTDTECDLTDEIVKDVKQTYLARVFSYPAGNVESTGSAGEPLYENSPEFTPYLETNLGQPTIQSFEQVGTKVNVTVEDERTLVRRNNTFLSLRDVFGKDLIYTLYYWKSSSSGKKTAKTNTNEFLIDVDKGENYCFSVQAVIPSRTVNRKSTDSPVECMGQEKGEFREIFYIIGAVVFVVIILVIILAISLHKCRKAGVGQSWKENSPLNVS

Sequence of tissue kallikrein (HK1) (P06870 25-262): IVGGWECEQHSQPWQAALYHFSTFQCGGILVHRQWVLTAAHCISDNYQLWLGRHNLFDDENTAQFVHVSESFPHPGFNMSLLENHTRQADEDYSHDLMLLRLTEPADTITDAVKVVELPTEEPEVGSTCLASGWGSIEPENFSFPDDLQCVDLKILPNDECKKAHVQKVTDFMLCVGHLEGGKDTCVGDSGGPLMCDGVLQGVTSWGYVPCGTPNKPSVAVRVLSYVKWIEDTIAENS

| Compound | Ki [1] [nM] | Ki [2] [nM] | Ki(HK1)/Ki(FVIIa) [2] |
| --- | --- | --- | --- |
| CC(C)S(=O)(=O)c1ccc2cc1CN(C)C(=O)[C@H](Nc1cc(F)c3c(N)nccc3c1)c1ccc(cc1)CCOC(=O)N2 [Comparator 1, reference compound] | 3330 | 38 | 87 |
| CCS(=O)(=O)c1ccc2cc1CN(C)C(=O)[C@H](Nc1ccc3c(N)ncc(F)c3c1)c1ccc(c(C)c1)[C@@H](C)COC(=O)N2.O=C(O)C(F)(F)F [Example 3, (2R,15R)-2-[(1-Amino-4-fluoroisoquinolin-6-yl)amino]-7-(ethanesulfonyl)-4,15,17-trimethyl-13-oxa-4,11-diazatricyclo[14.2.2.1^6,10]henicosa-1(18),6,8,10 (21),16,19-hexaene-3,12-dione; trifluoroacetic acid] | 270 | 2.3 | 117 |
| Cc1cc2ccc1[C@@H](C)COC(=O)Nc1cc(F)c(O[C@H](C)CO)c(c1)CN(C)C(=O)[C@@H]2Nc1ccc2c(N)nccc2c1.O=C(O)C(F)(F)F [Example 30, (2R,15R)-2-[(1-Aminoisoquinolin-6-yl)amino]-8-fluoro-7-{[(2R)-1-hydroxypropan-2-yl]oxy}-4,15,20-trimethyl-13-oxa-4,11-diazatricyclo[14.2.2.16,10]henicosa-1(18),6,8,10 (21),16,19-hexaene-3,12-dione; trifluoroacetic acid] | 70 | 0.17 | 412 |
| COc1cc2c(F)cc1[C@@H](C)COC(=O)Nc1ccc(S(=O)(=O)C3CC3)c(c1)CN(C)C(=O)[C@@H]2Nc1cc2ccnc(N)c2cc1F.O=C(O)C(F)(F)F [Example 25, (2R,15R)-2-[(1-Amino-7-fluoroisoquinolin-6-yl)amino]-7-(cyclopropanesulfonyl)-18-fluoro-20-methoxy-4,15-dimethyl-13-oxa-4,11-diazatricyclo[14.2.2.1^6,10]henicosa-1(18),6,8,10 (21),16,19-hexaene-3,12-dione; trifluoroacetic acid] | 270 | 0.25 | 1080 |
| Cc1cc2ccc1[C@@H](C)COC(=O)Nc1cc(F)c(O[C@@H]3COC[C@@H]3O)c(c1)CN(C)C(=O)[C@@H]2Nc1ccc2c(N)nccc2c1.O=C(O)C(F)(F)F [Example 27, (2R,15R)-2-[(1-Aminoisoquinolin-6-yl)amino]-8-fluoro-7-{[(3R,4S)-4-hydroxyoxolan-3-yl]oxy}-4,15,17-trimethyl-13-oxa-4,11-diazatricyclo[14.2.2.1^6,10]henicosa-1(18),6,8,10 (21),16,19-hexaene-3,12-dione; trifluoroacetic acid] | 320 | 0.23 | 1391 |
| COCCCOc1c(F)cc2cc1CN(C)C(=O)[C@H](Nc1ccc3c(N)nccc3c1)c1ccc(c(C)c1)[C@@H](C)COC(=O)N2.O=C(O)C(F)(F)F [Example 28, (2R,15R)-2-[(1-Aminoisoquinolin-6-yl)amino]-8-fluoro-7-(3-methoxypropoxy)-4,15,20-trimethyl-13-oxa-4,11-diazatricyclo[14.2.2.1^6,10]henicosa-1(18),6,8,10 (21),16,19-hexaene-3,12-dione; trifluoroacetic acid] | 290 | 0.2 | 1450 |
| Cc1cc2cc(C)c1CC(O)CC(=O)Nc1ccc(S(=O)(=O)C3CC3)c(c1)CN(C)C(=O)[C@@H]2Nc1ccc2c(N)ncc(F)c2c1.O=C(O)C(F)(F)F (stereo partly drawn) [Example 2, (2R)-2-[(1-Amino-4-fluoroisoquinolin-6-yl)amino]-7-(cyclopropanesulfonyl)-14-hydroxy-4,17,20-trimethyl-4,11-diazatricyclo[14.2.2.1^6,10]henicosa-1(18),6,8,10 (21),16,19-hexaene-3,12-dione; trifluoroacetic acid] | 1620 | 2.3 | 704 |
| Cc1cc2ccc1[C@@H](C)COC(=O)Nc1ccc(S(=O)(=O)C(C)C)c(c1)CN(C)C(=O)[C@@H]2Nc1ccc2c(N)ncc(F)c2c1.O=C(O)C(F)(F)F [Example 8, (2R,15R)-2-[(1-Amino-4-fluoroisoquinolin-6-yl)amino]-4,15,17-trimethyl-7-(propane-2-sulfonyl)-13-oxa-4,11-diazatricyclo[14.2.2.1^6,10]henicosa-1(18),6,8,10 (21),16,19-hexaene-3,12-dione; trifluoroacetic acid] | 700 | 1.2 | 583 |
| Cc1cc2ccc1[C@@H](C)COC(=O)Nc1cc(F)c(O[C@H]3CCOC3)c(c1)CN(C)C(=O)C2Nc1ccc2c(N)nccc2c1.O=C(O)C(F)(F)F (stereo partly drawn) [Example 39, (15R)-2-[(1-Aminoisoquinolin-6-yl)amino]-8-fluoro-4,15,20-trimethyl-7-[(3S)-oxolan-3-yloxy]-13-oxa-4,11-diazatricyclo[14.2.2.1^6,10]henicosa-1(18),6,8,10 (21),16,19-hexaene-3,12-dione; trifluoroacetic acid] | 100 | 0.02 | 5000 |
| Cc1cc2ccc1[C@@H](C)COC(=O)Nc1ccc(C(=O)N3CCC3)c(c1)CN(C)C(=O)[C@@H]2Nc1ccc2c(N)nccc2c1.O=C(O)C(F)(F)F [Example 7, (2R,15R)-2-[(1-Aminoisoquinolin-6-yl)amino]-7-(azetidine-1-carbonyl)-4,15,17-trimethyl-13-oxa-4,11-diazatricyclo[14.2.2.16,10]henicosa-1(18),6,8,10 (21),16,19-hexaene-3,12-dione; trifluoroacetic acid] | 630 | 1.2 | 525 |
| CCN(Cc1nccs1)C(=O)c1ccc2cc1CN(C)C(=O)[C@H](Nc1ccc3c(N)nccc3c1)c1ccc(c(C)c1)[C@@H](C)COC(=O)N2.O=C(O)C(F)(F)F [Example 23, (2R,15R)-2-[(1-Aminoisoquinolin-6-yl)amino]-N-ethyl-4,15,17-trimethyl-3,12-dioxo-N-(1,3-thiazol-2-ylmethyl)-13-oxa-4,11-diazatricyclo[14.2.2.1^6,10]henicosa-1(18),6,8,10 (21),16,19-hexaene-7-carboxamide; trifluoroacetic acid] | 330 | 0.3 | 1100 |
| Cc1cc2ccc1[C@@H](C(F)F)COC(=O)Nc1ccc(S(=O)(=O)C3CC3)c(c1)CN(C)C(=O)[C@@H]2Nc1ccc2c(N)nccc2c1.O=C(O)C(F)(F)F [Example 16, (2R,15R)-2-[(1-Aminoisoquinolin-6-yl)amino]-7-(cyclopropanesulfonyl)-15-(difluoromethyl)-4,17-dimethyl-13-oxa-4,11-diazatricyclo[14.2.2.1^6,10]henicosa-1(18),6,8,10 (21),16,19-hexaene-3,12-dione; trifluoroacetic acid] | 180 | 0.5 | 360 |
| Cc1cc2ccc1[C@@H](C)COC(=O)Nc1cc(F)c(O[C@@H](C)CO)c(c1)CN(C)C(=O)[C@@H]2Nc1ccc2c(N)nccc2c1.O=C(O)C(F)(F)F [Example 33, (2R,15R)-2-[(1-Aminoisoquinolin-6-yl)amino]-8-fluoro-7-{[(2S)-1-hydroxypropan-2-yl]oxy}-4,15,20-trimethyl-13-oxa-4,11-diazatricyclo[14.2.2.16,10]henicosa-1(18),6,8,10 (21),16,19-hexaene-3,12-dione; trifluoroacetic acid] | 50 | 0.14 | 357 |
